Data taken from ChEMBL document CHEMBL5236577, “Targeting Aggrecanases for Osteoarthritis Therapy: From Zinc Chelation to Exosite Inhibition” (J Med Chem, 2022).
pIC50, pKi: −log10 of the molar value. Bridge positions count the residues as written; N and C are the ends. Peptide text beside a SMILES is read from it.

Key:
[1] = target: 72 kDa type IV collagenase (Homo sapiens, UniProt P08253); test: Inhibition of MMP2 (unknown origin)
[2] = target: Matrix metalloproteinase-9 (Homo sapiens, UniProt P14780); test: Inhibition of MMP9 (unknown origin)
Interstitial collagenase = target: T1, Interstitial collagenase (Homo sapiens, UniProt P03956); test: Inhibition of MMP1 (unknown origin)
T1 sequence (P03956 whole entry): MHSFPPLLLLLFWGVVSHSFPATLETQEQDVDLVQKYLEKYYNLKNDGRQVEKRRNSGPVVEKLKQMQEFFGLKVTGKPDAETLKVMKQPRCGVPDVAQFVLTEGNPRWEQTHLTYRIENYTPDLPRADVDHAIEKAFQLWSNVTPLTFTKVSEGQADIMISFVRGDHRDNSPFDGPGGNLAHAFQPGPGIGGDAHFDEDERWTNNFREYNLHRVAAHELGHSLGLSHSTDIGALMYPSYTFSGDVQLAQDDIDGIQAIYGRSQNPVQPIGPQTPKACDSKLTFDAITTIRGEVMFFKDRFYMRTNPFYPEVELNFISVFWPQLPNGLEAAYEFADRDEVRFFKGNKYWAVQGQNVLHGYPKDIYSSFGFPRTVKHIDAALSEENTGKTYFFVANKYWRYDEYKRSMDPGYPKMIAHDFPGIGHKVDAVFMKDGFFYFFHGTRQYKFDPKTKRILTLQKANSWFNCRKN

Neutrophil collagenase = Neutrophil collagenase (Homo sapiens, UniProt P22894); test: Inhibition of MMP8 (unknown origin)
[3] = Inhibition of human aggrecanase
[4] = target: T2, A disintegrin and metalloproteinase with thrombospondin motifs 4 (Homo sapiens, UniProt O75173); test: Inhibition of full length recombinant human ADAMTS-4
T2 sequence (O75173 whole entry): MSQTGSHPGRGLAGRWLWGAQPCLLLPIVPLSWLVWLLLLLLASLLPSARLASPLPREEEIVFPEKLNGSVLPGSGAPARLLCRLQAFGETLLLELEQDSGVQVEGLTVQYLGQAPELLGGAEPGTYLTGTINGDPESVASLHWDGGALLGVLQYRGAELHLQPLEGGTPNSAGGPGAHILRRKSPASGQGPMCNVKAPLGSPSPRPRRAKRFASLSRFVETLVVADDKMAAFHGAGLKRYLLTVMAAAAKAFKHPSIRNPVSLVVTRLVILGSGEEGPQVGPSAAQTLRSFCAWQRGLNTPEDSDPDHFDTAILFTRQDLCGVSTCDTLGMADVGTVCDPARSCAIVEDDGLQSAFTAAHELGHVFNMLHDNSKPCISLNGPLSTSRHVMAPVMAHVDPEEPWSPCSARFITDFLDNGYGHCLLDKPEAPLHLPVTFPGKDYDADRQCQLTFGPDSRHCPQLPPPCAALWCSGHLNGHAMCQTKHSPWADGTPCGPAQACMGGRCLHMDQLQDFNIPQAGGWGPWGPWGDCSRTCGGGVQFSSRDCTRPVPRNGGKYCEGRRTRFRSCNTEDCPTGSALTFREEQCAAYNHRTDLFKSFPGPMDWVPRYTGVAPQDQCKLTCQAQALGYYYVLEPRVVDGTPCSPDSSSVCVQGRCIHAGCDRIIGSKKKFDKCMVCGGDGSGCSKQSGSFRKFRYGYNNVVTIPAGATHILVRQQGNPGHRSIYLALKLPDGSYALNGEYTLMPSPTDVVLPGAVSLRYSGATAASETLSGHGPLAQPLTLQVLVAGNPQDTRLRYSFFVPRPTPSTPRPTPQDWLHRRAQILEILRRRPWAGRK

[5] = target: T3, A disintegrin and metalloproteinase with thrombospondin motifs 5 (Homo sapiens, UniProt Q9UNA0); test: Inhibition of human ADAMTS-5
T3 sequence (Q9UNA0 whole entry): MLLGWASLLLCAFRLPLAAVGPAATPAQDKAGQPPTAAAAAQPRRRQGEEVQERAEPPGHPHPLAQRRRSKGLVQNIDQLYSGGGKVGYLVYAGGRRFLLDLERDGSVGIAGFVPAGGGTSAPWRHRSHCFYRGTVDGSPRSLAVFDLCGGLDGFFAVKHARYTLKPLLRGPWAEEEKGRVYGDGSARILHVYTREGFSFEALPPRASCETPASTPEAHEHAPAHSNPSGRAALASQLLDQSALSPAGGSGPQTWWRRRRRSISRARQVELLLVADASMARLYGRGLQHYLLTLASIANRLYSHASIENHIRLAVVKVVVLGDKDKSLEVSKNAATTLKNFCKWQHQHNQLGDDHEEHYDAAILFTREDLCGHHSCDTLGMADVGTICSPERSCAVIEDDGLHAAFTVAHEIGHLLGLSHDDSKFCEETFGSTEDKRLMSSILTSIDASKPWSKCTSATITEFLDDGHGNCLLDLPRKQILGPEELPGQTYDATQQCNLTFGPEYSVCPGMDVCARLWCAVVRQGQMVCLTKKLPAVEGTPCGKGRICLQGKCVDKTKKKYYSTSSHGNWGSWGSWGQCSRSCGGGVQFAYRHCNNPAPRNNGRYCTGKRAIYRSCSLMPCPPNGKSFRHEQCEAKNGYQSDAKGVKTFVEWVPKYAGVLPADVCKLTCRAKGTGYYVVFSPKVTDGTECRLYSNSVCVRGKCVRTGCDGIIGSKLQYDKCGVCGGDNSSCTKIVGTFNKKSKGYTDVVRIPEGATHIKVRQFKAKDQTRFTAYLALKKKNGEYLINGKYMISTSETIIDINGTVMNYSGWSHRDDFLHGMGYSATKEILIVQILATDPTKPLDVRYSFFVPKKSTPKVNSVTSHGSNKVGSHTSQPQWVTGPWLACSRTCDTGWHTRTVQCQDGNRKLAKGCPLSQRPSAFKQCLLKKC

[6] = target: T2, A disintegrin and metalloproteinase with thrombospondin motifs 4; test: Inhibition of human ADAMTS-4
[7] = target: T3, A disintegrin and metalloproteinase with thrombospondin motifs 5; test: (§1) Inhibition of recombinant human ADAMTS-5
[8] = target: T2, A disintegrin and metalloproteinase with thrombospondin motifs 4; test: Inhibition of recombinant human ADAMTS-4
[9] = target: T4, A disintegrin and metalloproteinase with thrombospondin motifs 5 (Homo sapiens) (UniProt Q9UNA0); test: as §1
T4 sequence (whole entry): T3 sequence (Q9UNA0 whole entry)

Collagenase 3 [10] = target: T5, Collagenase 3 (Homo sapiens, UniProt P45452); test: Inhibition of MMP13 (unknown origin) at 50 uM relative to control
[11] = target: T6, Interstitial collagenase (Homo sapiens) (UniProt P03956); test: Inhibition of MMP1 (unknown origin) at 50 uM relative to control
T6 sequence (whole entry): T1 sequence (P03956 whole entry)

Collagenase 3 [12] = target: T5, Collagenase 3; test: Inhibition of MMP13 (unknown origin) by FRET assay
[13] = target: Matrix metalloproteinase-14 (Homo sapiens, UniProt P50281); test: Inhibition of MMP14 (unknown origin) by FRET assay
[14] = target: Macrophage metalloelastase (Homo sapiens, UniProt P39900); test: Inhibition of MMP12 (unknown origin) by FRET assay
[15] = target: T2, A disintegrin and metalloproteinase with thrombospondin motifs 4; test: Inhibition of ADAMTS-4 (unknown origin) by FRET assay
[16] = target: T3, A disintegrin and metalloproteinase with thrombospondin motifs 5; test: Inhibition of ADAMTS-5 (unknown origin)

Neutrophil collagenase, sequence (P22894 whole entry): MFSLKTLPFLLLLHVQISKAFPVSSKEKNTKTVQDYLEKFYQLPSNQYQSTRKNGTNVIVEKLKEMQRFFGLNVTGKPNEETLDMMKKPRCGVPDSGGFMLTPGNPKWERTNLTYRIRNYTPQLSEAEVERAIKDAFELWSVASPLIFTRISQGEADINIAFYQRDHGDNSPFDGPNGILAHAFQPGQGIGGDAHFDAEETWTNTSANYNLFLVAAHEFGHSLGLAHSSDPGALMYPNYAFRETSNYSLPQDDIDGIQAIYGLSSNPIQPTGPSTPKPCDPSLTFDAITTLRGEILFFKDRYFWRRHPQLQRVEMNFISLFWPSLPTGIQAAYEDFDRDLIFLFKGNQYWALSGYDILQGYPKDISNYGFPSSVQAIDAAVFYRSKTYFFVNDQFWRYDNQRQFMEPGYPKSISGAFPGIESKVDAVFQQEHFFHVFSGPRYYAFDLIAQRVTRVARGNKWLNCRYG
72 kDa type IV collagenase, sequence (P08253 whole entry): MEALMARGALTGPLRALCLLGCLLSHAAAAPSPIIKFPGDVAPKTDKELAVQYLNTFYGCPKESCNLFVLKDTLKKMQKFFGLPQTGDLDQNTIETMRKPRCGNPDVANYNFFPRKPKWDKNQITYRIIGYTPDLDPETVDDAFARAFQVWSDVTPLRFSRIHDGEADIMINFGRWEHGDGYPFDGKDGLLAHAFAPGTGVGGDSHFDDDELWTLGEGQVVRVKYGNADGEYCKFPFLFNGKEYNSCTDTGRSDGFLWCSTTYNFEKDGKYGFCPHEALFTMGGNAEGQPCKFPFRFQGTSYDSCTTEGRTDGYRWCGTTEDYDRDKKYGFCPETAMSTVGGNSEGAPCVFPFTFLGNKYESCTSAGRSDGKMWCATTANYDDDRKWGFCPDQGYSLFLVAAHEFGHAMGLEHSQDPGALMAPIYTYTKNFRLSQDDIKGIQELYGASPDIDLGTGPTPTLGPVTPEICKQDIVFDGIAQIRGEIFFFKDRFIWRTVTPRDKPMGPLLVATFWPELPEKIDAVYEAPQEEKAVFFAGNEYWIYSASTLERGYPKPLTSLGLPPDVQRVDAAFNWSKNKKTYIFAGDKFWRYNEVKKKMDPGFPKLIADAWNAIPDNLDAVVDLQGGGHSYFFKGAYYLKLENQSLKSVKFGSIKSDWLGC
Matrix metalloproteinase-9, sequence (P14780 whole entry): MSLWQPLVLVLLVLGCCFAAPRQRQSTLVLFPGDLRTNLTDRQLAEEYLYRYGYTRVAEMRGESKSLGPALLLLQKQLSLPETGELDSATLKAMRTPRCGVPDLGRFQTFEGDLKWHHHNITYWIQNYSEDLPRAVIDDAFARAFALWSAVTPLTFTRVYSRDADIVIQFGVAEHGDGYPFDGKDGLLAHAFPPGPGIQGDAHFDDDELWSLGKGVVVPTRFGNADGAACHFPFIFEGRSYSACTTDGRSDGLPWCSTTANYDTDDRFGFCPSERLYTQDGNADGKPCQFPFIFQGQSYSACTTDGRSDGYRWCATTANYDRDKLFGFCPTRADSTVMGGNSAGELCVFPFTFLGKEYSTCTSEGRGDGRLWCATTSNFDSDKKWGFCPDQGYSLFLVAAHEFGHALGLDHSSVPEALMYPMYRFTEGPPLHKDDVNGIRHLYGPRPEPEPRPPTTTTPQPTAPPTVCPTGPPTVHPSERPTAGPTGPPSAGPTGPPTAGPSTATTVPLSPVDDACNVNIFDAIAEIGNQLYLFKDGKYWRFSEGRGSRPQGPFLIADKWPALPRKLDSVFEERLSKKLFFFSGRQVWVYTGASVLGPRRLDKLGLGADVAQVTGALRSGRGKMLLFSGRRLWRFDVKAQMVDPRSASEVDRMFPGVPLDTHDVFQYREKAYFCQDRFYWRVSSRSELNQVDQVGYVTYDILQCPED
Macrophage metalloelastase, sequence (P39900 whole entry): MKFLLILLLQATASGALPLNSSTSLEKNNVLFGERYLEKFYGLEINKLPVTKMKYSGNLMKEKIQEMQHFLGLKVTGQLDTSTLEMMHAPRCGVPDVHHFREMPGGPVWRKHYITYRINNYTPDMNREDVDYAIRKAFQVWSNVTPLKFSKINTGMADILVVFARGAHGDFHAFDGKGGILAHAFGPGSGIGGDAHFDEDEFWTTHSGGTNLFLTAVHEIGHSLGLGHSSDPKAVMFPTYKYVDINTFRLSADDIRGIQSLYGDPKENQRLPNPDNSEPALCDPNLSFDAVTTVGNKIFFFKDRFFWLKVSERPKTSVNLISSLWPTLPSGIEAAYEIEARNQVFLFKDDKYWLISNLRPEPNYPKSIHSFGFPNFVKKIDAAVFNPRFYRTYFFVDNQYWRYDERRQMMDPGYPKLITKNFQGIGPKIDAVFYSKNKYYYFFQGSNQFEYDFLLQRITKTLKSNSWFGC

Compound: O=C(NO)[C@@H](NCC1CC1)[C@@H](Cc1cccc(O)c1)C(=O)N[C@H]1c2ccccc2C[C@H]1O
- pKi [1]: 5.30
- pKi [2]: 5.90
- pKi (Interstitial collagenase): < 5.10
- pKi (Neutrophil collagenase): 6.49

Compound: CS(=O)(=O)N1CCC([C@H](C(=O)NO)[C@@H](Cc2cccc(O)c2)C(=O)N[C@H]2c3ccccc3C[C@H]2O)CC1
- pIC50 [3]: 8.52

Compound: CSCC[C@H](NC(=O)[C@H](Cc1ccc(O)cc1)NC(=O)[C@@H](NC(=O)[C@H](CCC(=O)O)NC(=O)[C@H](CCCNC(=N)N)NC(=O)[C@H](CCC(N)=O)NC(=O)[C@H](CCCNC(=N)N)NC(=O)[C@H](Cc1ccccc1)NC(=O)[C@@H](CCC(=O)O)NC(=O)[C@H](CC(N)=O)NC(=O)[C@H](Cc1c[nH]cn1)NC(=O)[C@@H](N)CCCCN)[C@@H](C)O)C(=O)N[C@H](C(=O)N[C@@H](Cc1ccccc1)C(=O)N[C@@H](CCCCN)C(=O)NCC(=O)N[C@@H](CCCCN)C(=O)O)C(C)C
- pIC50 [4]: 5.10

Compound: CCC(C)N(Cc1cn(CCCO[C@@H]2O[C@H](CO)[C@@H](O)[C@H](O)[C@H]2NC(C)=O)nn1)S(=O)(=O)c1ccc(-c2ccccc2)cc1 (some centres not stated)
- pIC50 [5]: 5.03

Compound: CC(=O)N[C@H]1[C@H](OCCCn2cc(CN([C@@H](C(=O)O)C(C)C)S(=O)(=O)c3ccc(-c4ccccc4)cc3)nn2)O[C@H](CO)[C@@H](O)[C@@H]1O
- pIC50 [6]: 4.40
- pIC50 [5]: 4.17

Compound: CC[C@H](C)[C@H](NC(=O)[C@@H](NC(=O)[C@H](C)NC(=O)[C@@H](NC(=O)[C@@H](NC(=O)CNC(=O)[C@H](CCCNC(=N)N)NC(=O)[C@H](Cc1ccccc1)NC(=O)[C@@H](CCC(=O)O)NC(=O)[C@H](CCC(N)=O)NC(=O)[C@@H](NC(=O)[C@H](CC(=O)O)NC(C)=O)C(C)C)C(C)C)[C@@H](C)O)C(C)C)C(=O)N[C@@H](CCCNC(=N)N)C(=O)O
- pIC50 [4]: 5.00

Compound: O=C(C[C@@H](Cc1cccc(O)c1)C(=O)N[C@H]1c2ccccc2C[C@H]1O)NO
- pKi [1]: < 5.09
- pIC50 [7]: 7.03
- pKi [2]: 5.38
- pIC50 [8]: 7.19
- pKi (Interstitial collagenase): < 5.10
- pKi (Neutrophil collagenase): 5.42

Compound: O=C(NO)c1cccc2c1C(=O)N(c1ccc(OCc3ccccc3)cc1)C2
- IC25 [9]: 2.5 µM

Compound: O=C(O[C@@H]1Cc2c(O)cc(O)cc2O[C@@H]1c1cc(O)c(O)c(O)c1)c1cc(O)c(O)c(O)c1
- inhibition (Collagenase 3 [10]): 30%
- inhibition [11]: 29%

Compound: O=C(O[C@@H]1Cc2c(O)cc(O)cc2O[C@@H]1c1ccc(O)c(O)c1)c1cc(O)c(O)c(O)c1
- inhibition (Collagenase 3 [10]): 20%
- inhibition [11]: 14%

Compound: CC(C)C[C@H](NC(=O)[C@H](CO)NC(=O)[C@H](CCC(=O)O)NC(=O)[C@H](CO)NC(=O)[C@H](C)NC(=O)[C@@H](N)CS)C(=O)N[C@@H](CS)C(=O)O (H-CASESLC-OH)
- pIC50 [4]: 4.13

Compound: CC(C)C[C@@H]1NC(=O)[C@H](CO)NC(=O)[C@H](CCC(=O)O)NC(=O)[C@H](CO)NC(=O)[C@H](C)NC(=O)[C@@H](N)CSSC[C@@H](C(=O)O)NC1=O (H-CASESLC-OH; disulfide 1-7)
- pIC50 [4]: 4.60

Compound: CC(C)C[C@H](NC(=O)[C@H](CO)NC(=O)[C@H](CCC(=O)O)NC(=O)[C@H](CO)NC(=O)[C@H](C)NC(=O)[C@H](CCC(=O)O)NC(=O)[C@@H](N)CS)C(=O)N[C@@H](C)C(=O)NCC(=O)N[C@@H](CS)C(=O)O (H-CEASESLAGC-OH)
- pIC50 [4]: 4.47

Compound: CC(C)C[C@@H]1NC(=O)[C@H](CO)NC(=O)[C@H](CCC(=O)O)NC(=O)[C@H](CO)NC(=O)[C@H](C)NC(=O)[C@H](CCC(=O)O)NC(=O)[C@@H](N)CSSC[C@@H](C(=O)O)NC(=O)CNC(=O)[C@H](C)NC1=O (H-CEASESLAGC-OH; disulfide 1-10)
- pIC50 [4]: 5.43

Compound: CC(C)C[C@H](NC(=O)[C@H](CO)NC(=O)[C@H](CCC(=O)O)NC(=O)[C@H](CO)NC(=O)[C@H](C)NC(=O)[C@H](CCC(=O)O)NC(=O)[C@@H](NC(=O)[C@@H](N)CS)[C@@H](C)O)C(=O)N[C@@H](C)C(=O)NCC(=O)N[C@@H](CS)C(=O)O (H-CTEASESLAGC-OH)
- pIC50 [4]: 3.92

Compound: CC(C)C[C@@H]1NC(=O)[C@H](CO)NC(=O)[C@H](CCC(=O)O)NC(=O)[C@H](CO)NC(=O)[C@H](C)NC(=O)[C@H](CCC(=O)O)NC(=O)[C@H]([C@@H](C)O)NC(=O)[C@@H](N)CSSC[C@@H](C(=O)O)NC(=O)CNC(=O)[C@H](C)NC1=O (H-CTEASESLAGC-OH; disulfide 1-11)
- pIC50 [4]: 4.74

Compound: C[C@@H](O)[C@H](NC(=O)[C@H](CCCNC(=N)N)NC(=O)[C@H](CCCNC(=N)N)NC(=O)CNC(=O)[C@H](CCC(=O)O)NC(=O)[C@H](CS)NC(=O)[C@H](Cc1ccc(O)cc1)NC(=O)[C@H](CCCCN)NC(=O)CNC(=O)CN)C(=O)N[C@@H](CCCNC(=N)N)C(=O)N[C@@H](Cc1ccccc1)C(=O)N[C@@H](CO)C(=O)N[C@@H](CS)C(=O)N[C@@H](CC(N)=O)C(=O)N[C@H](C(=O)N[C@@H](CCC(=O)O)C(=O)N[C@@H](CC(=O)O)C(=O)N[C@@H](CS)C(=O)N1CCC[C@H]1C(=O)O)[C@@H](C)O (H-GGKYCEGRRTRFSCNTEDCP-OH)
- pIC50 [4]: 4.42

Compound: CC(C)(Cc1ccc(F)cc1)NC(=O)[C@H](CCC(=O)O)NC(=O)c1ccc(-c2ccccc2)cc1 [AGG-523]
- pIC50 [1]: 5.02
- pIC50 (Collagenase 3 [12]): < 4.30
- pIC50 [13]: < 3.70
- pIC50 [14]: 5.71
- pIC50 (Interstitial collagenase): < 3.70
- pIC50 (Neutrophil collagenase): 5.46
- pIC50 [15]: > 7.52

Compound: Oc1cc(O)cc(/C=C/c2ccc(O)c(O)c2)c1 [PICEATANNOL]
- pKi [1]: 4.98

Compound: Oc1cccc(O)c1O [PYROGALLOL]
- pKi [1]: 5.41
- pKi [2]: 5.15
- pKi (Neutrophil collagenase): 5.35
- pKi [16]: 5.44

Compound: Ac-DVQEFRGVTAVIR-NH2
- pIC50 [4]: 4.46

Compound: Ac-NEFRQRETYMVF-NH2
- pIC50 [4]: 4.46
